Measured values reported in US20170105960A1, “Prodrugs of Succinic Acid for Increasing ATP Production” (NEUROVIVE PHARMACEUTICAL AB, priority 2014, published 2017).
pIC50: −log10 of the molar value. “Also recorded” adds a separate entry of the source.

Tests used:
intact human platelets [1] = test: Intervention on rotenone- or metformin-induced lactate production with cell-permeable succinate prodrugs; format: cell-based; conditions: for effect on metformin-induced lactate production: 10 mM metformin, consecutive additions of 250 μM each 30 minutes; for effect on rotenone-induced lactate production: rotenone 2 μM, repeated additions of 250 μM each 30 minutes
Method: (§1) Lactate levels are determined every 2 h using the Lactate Pro™ 2 blood lactate test meter (Arkray, Alere AB, Lidingö, Sweden) or similar types of measurements. Incubation is performed at 37° C. pH is measured at start, after 4 and after 8 h (or more frequently) of incubation using a Standard pH Meter, e.g. PHM210 (Radiometer, Copenhagen, Denmark). Drug candidates are added to the assay from start or following 30-60 min at concentrations within the range 10 μM-5 mM. […] In order to evaluate the specificity of the drug candidate, it is also tested in combination with a down-stream inhibitor of respiration such as the complex III inhibitor Antimycin at 1 μg/mL, which should abolish the effect of the drug candidate and restore the production of lactate. The use of antimycin is therefore also a control for undue effects of drug candidates on the lactate producing ability of the cells used in the assay.
Lactate levels were measured in intervals of 30 min with the onset of the experiment.

[2] = system: permeabilized human platelets
Method: (§2) Lactate production of intact human platelets was determined in PBS containing 10 mM glucose.
Subsequently the FADH2-linked substrate succinate (10 mM) was given to determine convergent complex I- and II-dependent OXPHOS capacity (OXPHOSCI+II). […] Finally, the artificial complex IV substrate N,N,N′,N′-tetramethyl-p-phenylenediamine dihydrochloride (TMPD, 0.5 mM) was added and the complex IV inhibitor sodium azide (10 mM) was given to measure complex IV activity and chemical background, respectively.

intact human platelets [3] = test: Lactate production and pH of intact human platelets; format: cell-based; conditions: metformin 1 and 10 mM, phenformin 0.5 mM, rotenone 2 μM
Method: as §1
Incubation was performed at 37° C. at a stirrer speed of 750 rpm, and pH was measured at start, after 4 and after 8 h of incubation (n=4) using a PHM210 Standard pH Meter (Radiometer, Copenhagen, Denmark).

intact cells [4] = test: Assays exemplified for enhancement of mitochondrial energy producing function (not specified which); format: cell-based, human
Method: An increase in respiration rate in the described protocol is tightly coupled to ATP synthesis by oxidative phosphorylation unless cells are uncoupled (i.e. proton leak without production of ATP). Uncoupling is tested for by addition of the ATP synthase inhibitor oligomycin (1-2 μg mL^−1) in a protocol 3 where the extent of uncoupling corresponds to the respiratory rate following oligomycin addition. In the second protocol the same buffer is used as described above. […] In the third protocol, the same buffer as described above is used. […] Subsequently, the ATP-synthase-inhibitor Oligomycin is added. A reduction in respiration is a measure of how much of the oxygen consumption that is coupled to ATP synthesis. No, or only a slight, reduction indicate that the compound is inducing a proton leak over the inner mitochondrial membrane. The uncoupler FCCP is then titrated to induce maximum uncoupled respiration. […] The experiment is terminated by the addition of 1 μg/mL of the complex III inhibitor Antimycin to measure non-mitochondrial oxygen consumption. Intact human blood cells are incubated in plasma from the same donor. […] The experiment is terminated by addition of Antimycin at final concentration 1 μg/mL and any residual non-mitochondrial oxygen consumption is measured.

intact cells [5] = test: Screening assay 2: enhancement and inhibition of mitochondrial energy producing function in intact cells (FCCP uncoupled); format: cell-based, human; set-up: key to Convergent (FCCP): The response in each parameter is graded either +, ++ or +++ in increasing order of potency; The response in each parameter is graded either +, ++ or +++ in increasing order of potency; The response in each parameter is graded either +, ++ or +++ in increasing order of potency; (+): Brackets [( )] indicate an intermediate effect, i.e. (+++) is between ++ and +++; conditions: for Convergent (FCCP): increase in mitochondrial oxygen consumption, screening assay 2, uncoupled conditions; for Toxicity: lowest concentration during compound titration at which a decrease in oxygen consumption is seen, screening assay 2
Method: (§3) Measurement of mitochondrial respiration is performed in a high-resolution oxygraph (Oxygraph—2k, Oroboros Instruments, Innsbruck, Austria) at a constant temperature of 37° C. Isolated human platelets, white blood cells, fibroblasts, human heart muscle fibers or other cell types containing live mitochondria are suspended in a 2 mL glass chamber at a concentration sufficient to yield oxygen consumption in the medium of ≧10 pmol O2 s^−1 mL^−1.
In the second protocol the same buffer is used as described above. After basal respiration is established, the mitochondrial uncoupler FCCP is added at a concentration of 2 nM to increase metabolic demand.

intact cells [6] = test: Screening assay 3: assay to assess uncoupling in intact cells (high-resolution respirometry); format: cell-based, human; set-up: key: The response in each parameter is graded either +, ++ or +++ in increasing order of potency; The response in each parameter is graded either +, ++ or +++ in increasing order of potency; The response in each parameter is graded either +, ++ or +++ in increasing order of potency; (+): Brackets [( )] indicate an intermediate effect, i.e. (+++) is between ++ and +++; conditions: for Convergent (Routine): increase in mitochondrial oxygen consumption induced by the compound, screening assay 3, 1 mM compound; for Uncoupling: level of oxygen consumption after addition of oligomycin, screening assay 3
Method: In the third protocol, the same buffer as described above is used. […] Subsequently, the ATP-synthase-inhibitor Oligomycin is added. A reduction in respiration is a measure of how much of the oxygen consumption that is coupled to ATP synthesis. No, or only a slight, reduction indicate that the compound is inducing a proton leak over the inner mitochondrial membrane. The uncoupler FCCP is then titrated to induce maximum uncoupled respiration. […] The experiment is terminated by the addition of 1 μg/mL of the complex III inhibitor Antimycin to measure non-mitochondrial oxygen consumption.

[7] = system: Intact human blood cells with inhibited complex I; test: Screening assay 4: enhancement of mitochondrial energy producing function in cells with inhibited respiratory complex I in human plasma; format: cell-based; set-up: key: The response in each parameter is graded either +, ++ or +++ in increasing order of potency; The response in each parameter is graded either +, ++ or +++ in increasing order of potency; The response in each parameter is graded either +, ++ or +++ in increasing order of potency; (+): Brackets [( )] indicate an intermediate effect, i.e. (+++) is between ++ and +++; conditions: increase in mitochondrial oxygen consumption
Method: as §3
Intact human blood cells are incubated in plasma from the same donor. […] Compounds dissolved in DMSO are titrated in a range of 10 μM to 10 mM final concentration. The experiment is terminated by addition of Antimycin at final concentration 1 μg/mL and any residual non-mitochondrial oxygen consumption is measured.

[8] = system: cells with inhibited respiratory complex I; test: Screening assay 1: enhancement of mitochondrial energy producing function in cells with inhibited respiratory complex I; format: cell-based, human; set-up: key: The response in each parameter is graded either +, ++ or +++ in increasing order of potency; The response in each parameter is graded either +, ++ or +++ in increasing order of potency; The response in each parameter is graded either +, ++ or +++ in increasing order of potency; (+): Brackets [( )] indicate an intermediate effect, i.e. (+++) is between ++ and +++; conditions: increase in mitochondrial oxygen consumption in cells with inhibited complex I
Method: as §3
Cells are placed in a buffer containing 110 mM sucrose, HEPES 20 mM, taurine 20 mM, K-lactobionate 60 mM, MgCl2 3 mM, KH2PO4 10 mM, EGTA 0.5 mM, BSA 1 g/l, pH 7.1. […] Compounds dissolved in DMSO are titrated in a range of 10 μM to 10 mM final concentration. Subsequently, cell membranes are permeabilised with digitonin (1 mg/1*10^6 plt) to allow entry of extracellularly released energy substrate or cell impermeable energy substrates. After stabilized respiration, Succinate 10 mM is added as a reference to enable respiration downstream of complex I. After the respiration stabilized the experiment is terminated by addition of Antimycin at final concentration 1 μg/mL and any residual non-mitochondrial oxygen consumption is measured. An increase in respiration rate in the described protocol is tightly coupled to ATP synthesis by oxidative phosphorylation unless cells are uncoupled (i.e. proton leak without production of ATP). […]

intact PBMCs = test: Lactate release of intact PBMCs; format: cell-based, human; conditions: 10 mM metformin, data not shown
intact human platelets [9] = test: Mitochondrial respiration in intact human platelets (respirometry); format: cell-based; conditions: for routine respiration change after 60 min: compared to first measurement after addition
Method: as §2
Routine respiration was followed for 60 min at 37° C. before the ATP-synthase inhibitor oligomycin (1 μg mL^−1) was added to assess LEAK respiration. Maximal uncoupled respiratory electron transport system capacity supported by endogenous substrates (ETS) was reached by titration of FCCP.

[10] = system: permeabilized human peripheral blood mononuclear cells; test: Mitochondrial respiration in permeabilized human PBMCs (respirometry); format: cell-based; conditions: PBMC, read-out: IC50 (OXPHOSCI respiration)
Method: Real-time respirometric measurements were performed using high-resolution oxygraphs (Oxygraph-2k, Oroboros Instruments, Innsbruck, Austria). The experimental conditions during the measurements were the following: 37° C., 2 mL active chamber volume and 750 rpm stirrer speed. […] Settings, daily calibration and instrumental background corrections were conducted according to the manufacturer's instructions. […] All measurements were performed at a platelet concentration of 200×10^6 cells per mL or a PBMC concentration of 5×10^6 cells per mL. […] Maximal uncoupled respiratory electron transport system capacity supported by convergent input through complex I and […] ) was evaluated by subsequent titration with the protonophore carbonyl-cyanide p-(trifluoromethoxy) phenylhydrazone (FCCP). […] The complex III inhibitor antimycin (1 μg mL^-1) was then given to reveal residual oxygen consumption (ROX). […] Complex IV activity was calculated by subtracting the sodium azide value from the TMPD value. With exception of complex IV activity, all respiratory states were measured at steady-state and corrected for ROX. Complex IV activity was measured after ROX determination and not at steady-state.

[11] = 10 mM metformin plus prodrug, 250 μM each 30 minutes

## CC(=O)OC(C)OC(=O)CCC(=O)OC(C)OC(C)=O (stereo not shown) [NV189]
Intact human platelets [1]; [11]
  rate of lactate production: 0.55 mmol lactate (200·10^9 trc·h)^−1
Intact human platelets [1]
  effect on metformin-induced lactate production: significantly decreased
  effect on rotenone-induced lactate production: attenuated; also recorded: brought back to normal
Intact human platelets [1]; rotenone 2 μM plus antimycin 1 μg/mL plus prodrug
  rate of lactate production: 0.89 mmol lactate (200·10^6trc·h)^−1

## [H]/N=C(/N)N/C(=N/[H])NCCc1ccccc1 [phenformin]
[2]; compared to controls
  ETSCII capacity and complex IV activity: not ETSCII or respiration specific to complex IV
[2]; phenformin versus metformin
  fold more potent inhibition of OXPHOSCI than metformin: 20 fold
[2]; read-out: IC50 (OXPHOSCI respiration), complex I substrates
  pIC50: 4.24
Intact human platelets [3]
  lactate production over 8 h compared to control: significantly more lactate

## CCOC(=O)CCC(=O)OCC [Diethyl succinate]
Intact cells [4]
  activity in the assays exemplified: inactive

## CC(=O)OC(CCCOC(=O)CCC(=O)O)OC(=O)CCC(=O)O (stereo not shown) [01-134]
Intact cells [5]
  Convergent (FCCP): (+)
  Toxicity: 10 mM
Intact cells [6]
  Convergent (Routine): ++
  Uncoupling: (+)
[7]
  CII (plasma): (+)
[8]
  CII: (+)

## CN(C)C(=N)N=C(N)N [metformin]
Intact PBMCs
  lactate release: increased lactate release
Intact human platelets [9]; 1 mM
  routine respiration change after 60 min: −17.27%
Intact human platelets [9]; 1 mM, whole blood incubated over 18 h before platelet isolation
  routine respiration reduction after whole blood incubation: 30.49%
Intact human platelets [9]; 10 mM
  routine respiration change after 60 min: −28.61%
Intact human platelets [9]; 100 mM, 15 min of exposure
  routine respiration change after 15 min compared to control: −39.77%
Intact human platelets [9]; 100 mM
  routine respiration change after 60 min: −81.78%
[10]
  pIC50: 3.35

## CC(=O)OCOC(=O)CCC(=O)OC(C)OC(C)=O (stereo not shown) [NV241]
Intact human platelets [1]; [11]
  rate of lactate production: 0.43 mmol lactate (200·10^9 trc·h)^−1
Intact human platelets [1]
  effect on metformin-induced lactate production: significantly decreased
  effect on rotenone-induced lactate production: attenuated

## COC(=O)CCC(=O)O [monomethyl succinate]
Intact cells [4]
  activity in the assays exemplified: inactive

## COC(=O)CCC(=O)OC [dimethyl succinate]
Intact cells [4]
  activity in the assays exemplified: inactive

## CC(=O)OCOC(=O)CCC(=O)OCOC(C)=O [NV118]
Intact human platelets [1]; [11]
  rate of lactate production: 0.43 mmol lactate (200·10^9 trc·h)^−1
Intact human platelets [1]
  effect on metformin-induced lactate production: significantly decreased
  effect on rotenone-induced lactate production: attenuated

## CC(=O)OC(CCCN1C(=O)c2ccccc2C1=O)OC(=O)CCC(=O)O (stereo not shown) [01-150, 4-(1-acetoxy-4-(1,3-dioxoisoindolin-2-yl)butoxy)-4-oxobutanoic acid]
Intact cells [5]
  Convergent (FCCP): +
  Toxicity: 2 mM
Intact cells [6]
  Convergent (Routine): +++
  Uncoupling: (+)
[7]
  CII (plasma): (+)
[8]
  CII: ++

## O=C(O)CCC(=O)O [succinate, reference compound]
Intact human platelets [1]
  effect on metformin-induced lactate production: did not reduce the metformin-induced production of lactate; also recorded: did not change this
